Source: patent EP0052437A1, “Antibacterial compounds, processes for their preparation and compositions containing them” (BEECHAM GROUP PLC, priority 1980, dated 1982)
In brackets after ≈: the same amount, converted by molar mass.

Legend:
Format in all cases: cell-based
M. suipneumoniae JF 435 = assay: Anti-mycoplasmal in vitro MIC; conditions: Mesomycoplasma hyopneumoniae, JF435, 144 h, Friis broth solidified with 0.9% agarose, 6 days incubation at 37°C
M. dispar NCTC 10125 = assay: Anti-mycoplasmal in vitro MIC; conditions: 144 h, Friis broth solidified with 0.9% agarose, 6 days incubation at 37°C
[1] = tested on: M. bovigenitalium ATCC 14173; assay: Anti-mycoplasmal in vitro MIC; conditions: 144 h, Friis broth solidified with 0.9% agarose, 6 days incubation at 37°C
M. suipneumoniae LABER = assay: Anti-mycoplasmal in vitro MIC; conditions: Mesomycoplasma hyopneumoniae, 144 h, Friis broth solidified with 0.9% agarose, 6 days incubation at 37°C
M. gallisepticum S6 = assay: Anti-mycoplasmal in vitro MIC; conditions: Mycoplasmoides gallisepticum, 144 h, Friis broth solidified with 0.9% agarose, 6 days incubation at 37°C
M. suipneumoniae HK(2) = assay: Anti-mycoplasmal in vitro MIC; conditions: Mesomycoplasma hyopneumoniae, 144 h, Friis broth solidified with 0.9% agarose, 6 days incubation at 37°C
M. pneumoniae ATCC 15492 = assay: Anti-mycoplasmal in vitro MIC; conditions: Mycoplasmoides pneumoniae, ATCC15492, 144 h, Friis broth solidified with 0.9% agarose, 6 days incubation at 37°C
M. bovis NCTC 10131 = assay: microbe, parasite or virus in culture; conditions: NCTC10131, 144 h
[2] = tested on: M. suipneumoniae J2206/183b; assay: Anti-mycoplasmal in vitro MIC; conditions: Mesomycoplasma hyopneumoniae, 144 h, Friis broth solidified with 0.9% agarose, 6 days incubation at 37°C
Strep. 641848-C = assay: Human bacteria MIC; conditions: nutrient agar with 5% chocolated horse blood, 18 hours at 37°C
Protocol: (§1) The values were determined by serial dilutions in nutrient agar with 5% chocolated horse blood after incubations for 18 hours at 37 °C.

[3] = tested on: Ps. aeruginosa NCTC 10662; assay: Human bacteria MIC; conditions: Pseudomonas aeruginosa, NCTC10662, nutrient agar with 5% chocolated horse blood, 18 hours at 37°C
Protocol: as §1

E. Coli NCTC 10418 = assay: Human bacteria MIC; conditions: Escherichia coli, NCTC10418, nutrient agar with 5% chocolated horse blood, 18 hours at 37°C
Protocol: as §1

[4] = tested on: Haemophilus influenzae Wy21; assay: Human bacteria MIC; conditions: nutrient agar with 5% chocolated horse blood, 18 hours at 37°C
Protocol: as §1

Strep. faecalis I = assay: Human bacteria MIC; conditions: Enterococcus faecalis, nutrient agar with 5% chocolated horse blood, 18 hours at 37°C
Protocol: as §1

P. mirabilis 889 = assay: Human bacteria MIC; conditions: Proteus mirabilis, nutrient agar with 5% chocolated horse blood, 18 hours at 37°C
Protocol: as §1

Strep. 2788-B = assay: Human bacteria MIC; conditions: nutrient agar with 5% chocolated horse blood, 18 hours at 37°C
Protocol: as §1

Staph. aureus Oxford = assay: Human bacteria MIC; conditions: Staphylococcus aureus, nutrient agar with 5% chocolated horse blood, 18 hours at 37°C
Protocol: as §1

[5] = tested on: Haemophilus influenzae Q1; assay: Human bacteria MIC; conditions: nutrient agar with 5% chocolated horse blood, 18 hours at 37°C
Protocol: as §1

Strep. pneumoniae CN33 = assay: Human bacteria MIC; conditions: Streptococcus pneumoniae, nutrient agar with 5% chocolated horse blood, 18 hours at 37°C
Protocol: as §1

[6] = tested on: Pasteurella multocida 1633; assay: Human bacteria MIC; conditions: nutrient agar with 5% chocolated horse blood, 18 hours at 37°C
Protocol: as §1

[7] = tested on: M. suipneumoniae PW/C/210; assay: Anti-mycoplasmal in vitro MIC; conditions: Mesomycoplasma hyopneumoniae, 144 h, Friis broth solidified with 0.9% agarose, 6 days incubation at 37°C
[8] = tested on: Treponema hyodysenterial TH3; assay: Swine dysentery MIC (inhibition of β-haemolysis); conditions: 72 h, Strain TH3, horse blood agar, 37°C for 3 days, anaerobic, lowest concentration to inhibit β-haemolysis
Protocol: (§2) The activity of the compounds of Examples 2 and 3 against various strains of Treponema hyodysenterial, associated with swine dysentry, were determined.
(§3) MIC values (µg/ml) of the compounds were determined by incorporating the compounds in horse blood agar, inoculating (multi-point) with 0.001 ml of 3 day growth from base of blood slope (+ 1 ml foetal calf serum) and incubating at 37°C for 3 days under aneorobic conditions (Gas Pak 150). The MIC values were taken as the lowest concentrations to inhibit β-haemolysis.

[9] = tested on: Treponema hyodysenterial Navis; assay: Swine dysentery MIC (inhibition of β-haemolysis); conditions: 72 h, Strain Navis, horse blood agar, 37°C for 3 days, anaerobic, lowest concentration to inhibit β-haemolysis
Protocol: as §2, §3

[10] = tested on: Treponema hyodysenterial P23; assay: Swine dysentery MIC (inhibition of β-haemolysis); conditions: 72 h, Strain P23, horse blood agar, 37°C for 3 days, anaerobic, lowest concentration to inhibit β-haemolysis
Protocol: as §2, §3

[11] = tested on: Treponema hyodysenterial B10; assay: Swine dysentery MIC (inhibition of β-haemolysis); conditions: 72 h, Strain B10, horse blood agar, 37°C for 3 days, anaerobic, lowest concentration to inhibit β-haemolysis
Protocol: as §2, §3

[12] = tested on: Treponema hyodysenterial S73/2; assay: Swine dysentery MIC (inhibition of β-haemolysis); conditions: 72 h, Strain S73/2, horse blood agar, 37°C for 3 days, anaerobic, lowest concentration to inhibit β-haemolysis
Protocol: as §2, §3

[13] = tested on: Treponema hyodysenterial S77/10; assay: Swine dysentery MIC (inhibition of β-haemolysis); conditions: 72 h, Strain S77/10, horse blood agar, 37°C for 3 days, anaerobic, lowest concentration to inhibit β-haemolysis
Protocol: as §2, §3

[14] = tested on: Treponema hyodysenterial S77/2; assay: Swine dysentery MIC (inhibition of β-haemolysis); conditions: 72 h, Strain S77/2, horse blood agar, 37°C for 3 days, anaerobic, lowest concentration to inhibit β-haemolysis
Protocol: as §2, §3

[15] = tested on: Strep. pyogenes R80/421-A; assay: Human bacteria MIC; conditions: Streptococcus pyogenes, nutrient agar with 5% chocolated horse blood, 18 hours at 37°C
Protocol: as §1

Structure (SMILES) | MIC (M. suipneumoniae JF 435) | MIC (M. dispar NCTC 10125) | MIC [1] | MIC (M. suipneumoniae LABER) | MIC (M. gallisepticum S6) | MIC (M. suipneumoniae HK(2)) | MIC (M. pneumoniae ATCC 15492) | MIC (M. bovis NCTC 10131) | MIC [2] | MIC (Strep. 641848-C) | MIC [3] | MIC (E. Coli NCTC 10418) | MIC [4] | MIC (Strep. faecalis I) | MIC (P. mirabilis 889) | MIC (Strep. 2788-B) | MIC (Staph. aureus Oxford) | MIC [5] | MIC [6] | MIC [7] | other results
C/C(=C\C(=O)OC(C)c1ccc(C#N)cc1)CC1OCC(CC2OC2C(C)C(C)O)C(O)C1O (centres unmarked) [Example 4, 1-(p-Cyanophenyl)ethyl monate A] | 1 µg/mL (≈ 2.11 µM) | 0.5 µg/mL (≈ 1.06 µM) | 0.025 µg/mL (≈ 0.0528 µM) | 1 µg/mL (≈ 2.11 µM) | 10 µg/mL (≈ 21.1 µM) | 2.5 µg/mL (≈ 5.28 µM) | 5 µg/mL (≈ 10.6 µM) | ≤ 0.01 µg/mL | 2.5 µg/mL (≈ 5.28 µM) | 2.5 µg/mL (≈ 5.28 µM) | > 100 µg/mL | > 100 µg/mL | 0.5 µg/mL (≈ 1.06 µM) | > 100 µg/mL | > 100 µg/mL | 5 µg/mL (≈ 10.6 µM) | 2.5 µg/mL (≈ 5.28 µM) | 0.5 µg/mL (≈ 1.06 µM) | 10 µg/mL (≈ 21.1 µM) | 1 µg/mL (≈ 2.11 µM) | MIC (Strep. pneumoniae CN33): 2.5 µg/mL (≈ 5.28 µM)
C/C(=C\C(=O)OCc1ccc(C#N)cc1)CC1OCC(CC2OC2C(C)C(C)O)C(O)C1O (centres unmarked) [Example 3, p-Cyanobenzyl monate A] | 0.25 µg/mL (≈ 0.544 µM) | 0.05 µg/mL (≈ 0.109 µM) | ≤ 0.01 µg/mL | 0.1 µg/mL (≈ 0.218 µM) | 0.25 µg/mL (≈ 0.544 µM) | 0.25 µg/mL (≈ 0.544 µM) | 0.25 µg/mL (≈ 0.544 µM) | < 0.01 µg/mL | 0.25 µg/mL (≈ 0.544 µM) | 0.25 µg/mL (≈ 0.544 µM) | > 100 µg/mL | 50 µg/mL (≈ 109 µM) |  | 100 µg/mL (≈ 218 µM) | 50 µg/mL (≈ 109 µM) | 0.5 µg/mL (≈ 1.09 µM) | 0.25 µg/mL (≈ 0.544 µM) | 0.1 µg/mL (≈ 0.218 µM) | 0.5 µg/mL (≈ 1.09 µM) | 0.1 µg/mL (≈ 0.218 µM) | MIC [8]: 5 µg/mL (≈ 10.9 µM); MIC [9]: 10 µg/mL (≈ 21.8 µM); MIC [10]: 40 µg/mL (≈ 87 µM); MIC [11]: 20 µg/mL (≈ 43.5 µM); MIC [12]: 5 µg/mL (≈ 10.9 µM); MIC [13]: 10 µg/mL (≈ 21.8 µM); MIC [14]: 10 µg/mL (≈ 21.8 µM); MIC (Strep. pneumoniae CN33): 0.25 µg/mL (≈ 0.544 µM); MIC [15]: 0.1 µg/mL (≈ 0.218 µM)
C/C(=C\C(=O)OCc1cc(C#N)cc(C#N)c1)CC1OCC(CC2OC2C(C)C(C)O)C(O)C1O (centres unmarked) [Example 6, 3,5-Dicyanobenzyl monate A] | 0.1 µg/mL (≈ 0.206 µM) | 0.05 µg/mL (≈ 0.103 µM) | 0.025 µg/mL (≈ 0.0516 µM) | 0.05 µg/mL (≈ 0.103 µM) | 2.5 µg/mL (≈ 5.16 µM) | 0.1 µg/mL (≈ 0.206 µM) | 2.5 µg/mL (≈ 5.16 µM) | 0.025 µg/mL (≈ 0.0516 µM) | 0.1 µg/mL (≈ 0.206 µM) | 1 µg/mL (≈ 2.06 µM) | > 100 µg/mL | > 100 µg/mL |  | 100 µg/mL (≈ 206 µM) | 100 µg/mL (≈ 206 µM) |  | 2.5 µg/mL (≈ 5.16 µM) | 0.5 µg/mL (≈ 1.03 µM) | 2.5 µg/mL (≈ 5.16 µM) | 0.05 µg/mL (≈ 0.103 µM) | MIC [15]: 1 µg/mL (≈ 2.06 µM)
C/C(=C\C(=O)OCc1cccc(C#N)c1)CC1OCC(CC2OC2C(C)C(C)O)C(O)C1O (centres unmarked) [Example 2, m-Cyanobenzyl monate A] | 0.1 µg/mL (≈ 0.218 µM) | 0.025 µg/mL (≈ 0.0544 µM) | ≤ 0.01 µg/mL | 0.05 µg/mL (≈ 0.109 µM) | 2.5 µg/mL (≈ 5.44 µM) | 0.1 µg/mL (≈ 0.218 µM) | 0.5 µg/mL (≈ 1.09 µM) | ≤ 0.01 µg/mL | 0.05 µg/mL (≈ 0.109 µM) | 1 µg/mL (≈ 2.18 µM) | > 100 µg/mL | 50 µg/mL (≈ 109 µM) | 0.1 µg/mL (≈ 0.218 µM) | 100 µg/mL (≈ 218 µM) | 100 µg/mL (≈ 218 µM) |  | 1 µg/mL (≈ 2.18 µM) | 0.1 µg/mL (≈ 0.218 µM) | 1 µg/mL (≈ 2.18 µM) | 0.05 µg/mL (≈ 0.109 µM) | MIC [9]: 10 µg/mL (≈ 21.8 µM); MIC [10]: 10 µg/mL (≈ 21.8 µM); MIC [11]: 10 µg/mL (≈ 21.8 µM); MIC [13]: 10 µg/mL (≈ 21.8 µM); MIC [14]: 10 µg/mL (≈ 21.8 µM); MIC (Strep. pneumoniae CN33): 0.5 µg/mL (≈ 1.09 µM)
C/C(=C\C(=O)OCc1ccccc1C#N)CC1OCC(CC2OC2C(C)C(C)O)C(O)C1O (centres unmarked) [Example 1, o-Cyanobenzyl monate A] | 1 µg/mL (≈ 2.18 µM) | 0.25 µg/mL (≈ 0.544 µM) | ≤ 0.01 µg/mL | 0.5 µg/mL (≈ 1.09 µM) | 2.5 µg/mL (≈ 5.44 µM) | 1 µg/mL (≈ 2.18 µM) | 2.5 µg/mL (≈ 5.44 µM) |  | 1 µg/mL (≈ 2.18 µM) | 1 µg/mL (≈ 2.18 µM) | > 100 µg/mL | > 100 µg/mL | 0.25 µg/mL (≈ 0.544 µM) | > 100 µg/mL | > 100 µg/mL | 5 µg/mL (≈ 10.9 µM) | 1 µg/mL (≈ 2.18 µM) | 0.25 µg/mL (≈ 0.544 µM) | 1 µg/mL (≈ 2.18 µM) | 0.5 µg/mL (≈ 1.09 µM) | MIC (Strep. pneumoniae CN33): 1 µg/mL (≈ 2.18 µM); MIC [15]: 0.5 µg/mL (≈ 1.09 µM)
C/C(=C\C(=O)OCc1cccc(C#N)c1)CC1OCC(C/C=C/C(C)C(C)O)C(O)C1O (centres unmarked) [Example 5, m-Cyanobenzyl monate C] | 1 µg/mL (≈ 2.25 µM) | 0.1 µg/mL (≈ 0.225 µM) | 0.1 µg/mL (≈ 0.225 µM) | 0.5 µg/mL (≈ 1.13 µM) | 10 µg/mL (≈ 22.5 µM) | 1 µg/mL (≈ 2.25 µM) | 5 µg/mL (≈ 11.3 µM) | 0.05 µg/mL (≈ 0.113 µM) | 1 µg/mL (≈ 2.25 µM) | 2.5 µg/mL (≈ 5.64 µM) | > 100 µg/mL | > 100 µg/mL | 2.5 µg/mL (≈ 5.64 µM) | > 100 µg/mL | > 100 µg/mL | 5 µg/mL (≈ 11.3 µM) | 2.5 µg/mL (≈ 5.64 µM) |  | 10 µg/mL (≈ 22.5 µM) | 0.5 µg/mL (≈ 1.13 µM) | MIC [15]: 2.5 µg/mL (≈ 5.64 µM)
